Assays:
Format in all cases: in vivo
[1] = test system: Chenopodium album; assay: Herbicidal activity, preemergence test; conditions: pre; sprayed onto soil, 800 g of active material per hectare; evaluated 3 weeks after treatment
Method: (§1) To evaluate their herbicidal activity, compounds according to the invention are tested using a representative range of plants: TRZAW Triticum aestivum HORVW Hordeum vulgare ZEAMX Zea mays GOSHI Gossypium hirsutum HELAN Helianthus annuus GLYMA Glycine max ALOMY Alopecurus myosuroides SETVI Setaria viridis ECHCG Echinochloa crus-galli GALAP Galium aparine STEME Stellaria media VERPE Veronica persica VIOAR Viola arvensis IPOHE Ipomoea hederacea LAMPU Lamium purpureum PAPRH Papaver rhoeas MATIN Matricaria inodora AMARE Amaranthus retroflexus ABUTH Abutilon theophrasti AMBEL Ambrosia artemisifolia CHEAL Chenopodium album
(§2) The tests fall into two categories, preemergence and postemergence. The preemergence tests involve spraying a liquid formulation of the compound onto the soil in which the seeds have recently been sown. The postemergence tests involve spraying a liquid formulation of the compound onto seedling plants.
(§3) The soil used in the tests is a prepared horticultural loam.
(§4) The formulations used in the tests are prepared from solutions of the test compounds in acetone containing 0.4% by weight of an alkylphenol/ethylene oxide condensate available under the trade mark TRITON X-155. These acetone solutions are diluted with water and the resulting formulations applied at dosage levels corresponding to 800 g of active material per hectare in a volume equivalent to 900 litres per hectare.
(§5) In the preemergence tests untreated sown soil and in the postemergence tests untreated soil bearing seedling plants are used as controls.
(§6) Results of herbicide evaluation are expressed on a rating scale (0-9). The scale is based upon a visual observation of plant stand, vigor, malformation, size, chlorosis, and general plant appearance as compared to a control. Preemergence and postemergence treatments are evaluated at 3 and 2 weeks after treatment, respectively.

[2] = test system: Amaranthus retroflexus; assay: Herbicidal activity, preemergence test; conditions: pre; sprayed onto soil, 800 g of active material per hectare; evaluated 3 weeks after treatment
Method: as §1, §2, §3, §4, §5, §6

[3] = test system: Abutilon theophrasti; assay: Herbicidal activity, preemergence test; conditions: pre; sprayed onto soil, 800 g of active material per hectare; evaluated 3 weeks after treatment
Method: as §1, §2, §3, §4, §5, §6

[4] = test system: Ambrosia artemisifolia; assay: Herbicidal activity, preemergence test; conditions: pre; sprayed onto soil, 800 g of active material per hectare; evaluated 3 weeks after treatment
Method: as §1, §2, §3, §4, §5, §6

[5] = test system: Galium aparine; assay: Herbicidal activity, preemergence test; conditions: pre; sprayed onto soil, 800 g of active material per hectare; evaluated 3 weeks after treatment
Method: as §1, §2, §3, §4, §5, §6

[6] = test system: Hordeum vulgare; assay: Herbicidal activity, preemergence test; conditions: pre; sprayed onto soil, 800 g of active material per hectare; evaluated 3 weeks after treatment
Method: as §1, §2, §3, §4, §5, §6

[7] = test system: Ipomoea hederacea; assay: Herbicidal activity, preemergence test; conditions: pre; sprayed onto soil, 800 g of active material per hectare; evaluated 3 weeks after treatment
Method: as §1, §2, §3, §4, §5, §6

[8] = test system: Alopecurus myosuroides; assay: Herbicidal activity, preemergence test; conditions: pre; sprayed onto soil, 800 g of active material per hectare; evaluated 3 weeks after treatment
Method: as §1, §2, §3, §4, §5, §6

[9] = test system: Matricaria inodora; assay: Herbicidal activity, preemergence test; conditions: pre; sprayed onto soil, 800 g of active material per hectare; evaluated 3 weeks after treatment
Method: as §1, §2, §3, §4, §5, §6

[10] = test system: Papaver rhoeas; assay: Herbicidal activity, preemergence test; conditions: pre; sprayed onto soil, 800 g of active material per hectare; evaluated 3 weeks after treatment
Method: as §1, §2, §3, §4, §5, §6

[11] = test system: Veronica persica; assay: Herbicidal activity, preemergence test; conditions: pre; sprayed onto soil, 800 g of active material per hectare; evaluated 3 weeks after treatment
Method: as §1, §2, §3, §4, §5, §6

[12] = test system: Zea mays; assay: Herbicidal activity, preemergence test; conditions: pre; sprayed onto soil, 800 g of active material per hectare; evaluated 3 weeks after treatment
Method: as §1, §2, §3, §4, §5, §6

[13] = test system: Stellaria media; assay: Herbicidal activity, preemergence test; conditions: pre; sprayed onto soil, 800 g of active material per hectare; evaluated 3 weeks after treatment
Method: as §1, §2, §3, §4, §5, §6

[14] = test system: Gossypium hirsutum; assay: Herbicidal activity, preemergence test; conditions: pre; sprayed onto soil, 800 g of active material per hectare; evaluated 3 weeks after treatment
Method: as §1, §2, §3, §4, §5, §6

[15] = test system: Setaria viridis; assay: Herbicidal activity, preemergence test; conditions: pre; sprayed onto soil, 800 g of active material per hectare; evaluated 3 weeks after treatment
Method: as §1, §2, §3, §4, §5, §6

[16] = test system: Triticum aestivum; assay: Herbicidal activity, preemergence test; conditions: pre; sprayed onto soil, 800 g of active material per hectare; evaluated 3 weeks after treatment
Method: as §1, §2, §3, §4, §5, §6

[17] = test system: Glycine max; assay: Herbicidal activity, preemergence test; conditions: pre; sprayed onto soil, 800 g of active material per hectare; evaluated 3 weeks after treatment
Method: as §1, §2, §3, §4, §5, §6

[18] = test system: Lamium purpureum; assay: Herbicidal activity, preemergence test; conditions: pre; sprayed onto soil, 800 g of active material per hectare; evaluated 3 weeks after treatment
Method: as §1, §2, §3, §4, §5, §6

[19] = test system: Chenopodium album; assay: Herbicidal activity, postemergence test; conditions: post; sprayed onto seedling plants, 800 g of active material per hectare; evaluated 2 weeks after treatment
Method: as §1, §2, §3, §4, §5, §6

[20] = test system: Amaranthus retroflexus; assay: Herbicidal activity, postemergence test; conditions: post; sprayed onto seedling plants, 800 g of active material per hectare; evaluated 2 weeks after treatment
Method: as §1, §2, §3, §4, §5, §6

[21] = test system: Abutilon theophrasti; assay: Herbicidal activity, postemergence test; conditions: post; sprayed onto seedling plants, 800 g of active material per hectare; evaluated 2 weeks after treatment
Method: as §1, §2, §3, §4, §5, §6

[22] = test system: Ambrosia artemisifolia; assay: Herbicidal activity, postemergence test; conditions: post; sprayed onto seedling plants, 800 g of active material per hectare; evaluated 2 weeks after treatment
Method: as §1, §2, §3, §4, §5, §6

[23] = test system: Galium aparine; assay: Herbicidal activity, postemergence test; conditions: post; sprayed onto seedling plants, 800 g of active material per hectare; evaluated 2 weeks after treatment
Method: as §1, §2, §3, §4, §5, §6

[24] = test system: Hordeum vulgare; assay: Herbicidal activity, postemergence test; conditions: post; sprayed onto seedling plants, 800 g of active material per hectare; evaluated 2 weeks after treatment
Method: as §1, §2, §3, §4, §5, §6

[25] = test system: Ipomoea hederacea; assay: Herbicidal activity, postemergence test; conditions: post; sprayed onto seedling plants, 800 g of active material per hectare; evaluated 2 weeks after treatment
Method: as §1, §2, §3, §4, §5, §6

[26] = test system: Alopecurus myosuroides; assay: Herbicidal activity, postemergence test; conditions: post; sprayed onto seedling plants, 800 g of active material per hectare; evaluated 2 weeks after treatment
Method: as §1, §2, §3, §4, §5, §6

[27] = test system: Matricaria inodora; assay: Herbicidal activity, postemergence test; conditions: post; sprayed onto seedling plants, 800 g of active material per hectare; evaluated 2 weeks after treatment
Method: as §1, §2, §3, §4, §5, §6

[28] = test system: Papaver rhoeas; assay: Herbicidal activity, postemergence test; conditions: post; sprayed onto seedling plants, 800 g of active material per hectare; evaluated 2 weeks after treatment
Method: as §1, §2, §3, §4, §5, §6

[29] = test system: Veronica persica; assay: Herbicidal activity, postemergence test; conditions: post; sprayed onto seedling plants, 800 g of active material per hectare; evaluated 2 weeks after treatment
Method: as §1, §2, §3, §4, §5, §6

[30] = test system: Zea mays; assay: Herbicidal activity, postemergence test; conditions: post; sprayed onto seedling plants, 800 g of active material per hectare; evaluated 2 weeks after treatment
Method: as §1, §2, §3, §4, §5, §6

[31] = test system: Stellaria media; assay: Herbicidal activity, postemergence test; conditions: post; sprayed onto seedling plants, 800 g of active material per hectare; evaluated 2 weeks after treatment
Method: as §1, §2, §3, §4, §5, §6

[32] = test system: Gossypium hirsutum; assay: Herbicidal activity, postemergence test; conditions: post; sprayed onto seedling plants, 800 g of active material per hectare; evaluated 2 weeks after treatment
Method: as §1, §2, §3, §4, §5, §6

[33] = test system: Setaria viridis; assay: Herbicidal activity, postemergence test; conditions: post; sprayed onto seedling plants, 800 g of active material per hectare; evaluated 2 weeks after treatment
Method: as §1, §2, §3, §4, §5, §6

[34] = test system: Triticum aestivum; assay: Herbicidal activity, postemergence test; conditions: post; sprayed onto seedling plants, 800 g of active material per hectare; evaluated 2 weeks after treatment
Method: as §1, §2, §3, §4, §5, §6

[35] = test system: Glycine max; assay: Herbicidal activity, postemergence test; conditions: post; sprayed onto seedling plants, 800 g of active material per hectare; evaluated 2 weeks after treatment
Method: as §1, §2, §3, §4, §5, §6

[36] = test system: Lamium purpureum; assay: Herbicidal activity, postemergence test; conditions: post; sprayed onto seedling plants, 800 g of active material per hectare; evaluated 2 weeks after treatment
Method: as §1, §2, §3, §4, §5, §6

C[C@H](NC(=O)c1nnc(-c2ccc(F)cc2)o1)c1ccccc1 [Example 7]
5 (definite injury): HORVW control rating (0-9) [24] | ALOMY control rating (0-9) [26]
2 (slight effect): ZEAMX control rating (0-9) [30]
4 (injury): ALOMY control rating (0-9) [8] | TRZAW control rating (0-9) [34]
1 (trace effect): GALAP control rating (0-9) [5] | GLXMA control rating (0-9) [17]
0 (no effect): AMBEL control rating (0-9) [4] | HORVW control rating (0-9) [6] | IPOHE control rating (0-9) [7] | ZEAMX control rating (0-9) [12] | GOSHI control rating (0-9) [14] | TRZAW control rating (0-9) [16]
8 (approaching complete kill): CHEAL control rating (0-9) [1] | ABUTH control rating (0-9) [3] | AMBEL control rating (0-9) [22] | GLXMA control rating (0-9) [35]
7 (good herbicidal effect): GALAP control rating (0-9) [23]
9 (complete kill): AMARE control rating (0-9) [2] | MATIN control rating (0-9) [9] | PAPRH control rating (0-9) [10] | VERPE control rating (0-9) [11] | STEME control rating (0-9) [13] | SETVI control rating (0-9) [15] | LAMPU control rating (0-9) [18] | CHEAL control rating (0-9) [19] | AMARE control rating (0-9) [20] | ABUTH control rating (0-9) [21] | IPOHE control rating (0-9) [25] | MATIN control rating (0-9) [27] | PAPRH control rating (0-9) [28] | VERPE control rating (0-9) [29] | STEME control rating (0-9) [31] | GOSHI control rating (0-9) [32] | SETVI control rating (0-9) [33] | LAMPU control rating (0-9) [36]

— patent EP0726263A2, “Herbicidal (1,3,4)oxadiazoles and thiadiazoles” (American Cyanamid Company, priority 1995, dated 1996)
